According to patent publication US8012973B2, “Compounds for the treatment of auricular fibrillation” (Proyecto de Biomedicina Cima S.L., priority 2005, dated 2011):
Entries after “also recorded” stand apart in the source; their conditions may differ.

Tests used:
[1] = test system: isolated human atrial myocytes; experiment: Spontaneous SR calcium release (calcium sparks and waves), confocal calcium imaging of fluo-3 loaded cells; format: cell-based; details: for basal calcium wave frequency measured by confocal microscopy: 50 nM, cells from atrial fibrillation patients with elevated basal SR calcium release, n=6, both antagonists pooled (FIG. 3B left)
Experimental: (§1) Myocytes were isolated from human atrial tissue samples as previously described (cf. L. Hove-Madsen et al., “Atrial fibrillation is associated with increased spontaneous calcium release from the sarcoplasmic reticulum in human atrial myocytes”, Circulation 2004, vol. 110, pp. 1358-63). Briefly, the samples were rinsed, cut into small pieces in a calcium free solution containing 30 mM butanedione monoxime (BDM), and incubated at 35° C. in a Ca^2+ free solution containing 0.5 mg/ml collagenase (Worthington type 2, 318 u/mg) and 0.5 mg/ml proteinase (Sigma type XXIV, 11 u/mg solid). After 45 minutes, the tissue was removed from the enzyme solution and cells were disgregated in Ca^2+-free solution with a Pasteur pipette. The remaining tissue was digested for 3×15 minutes in a fresh calcium free solution containing 0.4 mg/ml collagenase. […] Only elongated cells with clear cross striations and without granulation were used for experiments.
Calcium sparks and calcium waves were detected in fluo-3 loaded cells using a laser-scanning confocal microscope (Leica TCS SP2 AOBS, Germany). […] Fluorescence emission was collected between 500 and 650 nm with the excitation at 488 nm attenuated to 1-5%. Calcium sparks and calcium waves were measured at resting conditions during 2×10.24 s, at a scan rate of 1 kHz. Calcium sparks were detected as an increase in the signal mass of a 3 μm section through the center of a calcium spark, without any detectable increase in an adjacent 3 μm section. An increase in the signal mass in two or more adjacent 3 μm sections were counted as calcium waves. The amplitude of each calcium spark and its half-life were determined from an exponential fit of the decaying phase of the calcium spark transient. The calcium spark frequency was determined for each cell and normalized to the scanned cell length.
Electrophysiological and confocal calcium imaging experiments were carried out without knowledge about the clinical data of the patients. The Ca^2+ sparks and Ca^2+ waves recorded in cells from the same patient were averaged. […]

[2] = test system: isolated human atrial myocytes; experiment: Patch-clamp recording of spontaneous Na-Ca exchange current (INCX) associated with calcium waves, membrane potential clamped at -80 mV; format: cell-based; details: for basal calcium wave frequency measured by patch clamp technique: cells from atrial fibrillation patients with elevated basal SR calcium release, n=7, both antagonists pooled (FIG. 3B right); for reversal of the specific effect of CGS 21680 on spontaneous SR calcium release: antagonist concentration not stated at this place
Experimental: as §1
The transient inward Na—Ca exchange current associated with calcium waves was recorded in the perforated patch configuration using a software controlled patch-clamp amplifier (EPC 10, HEKA, Germany). The pipette resistance was 1.5-4 MΩ. Experiments were carried out at room temperature and began when the access resistance was stable and had decreased to less than 5 times the pipette resistance. The extracellular solution contained (in mM): NaCl 127, tetraethyl ammonium (TEA) 5, HEPES 10, NaHCO3 4, NaH2PO4 0.33, glucose 10, pyruvic acid 5, CaCl2 2, MgCl2 1.8, (pH=7.4). The pipette solution contained (in mM): aspartic acid 109, CsCl 47, Mg2ATP 3, MgCl2 1, Na2phosphocreatine 5, Li2GTP 0.42, HEPES 10 and 250 μg/ml amphotericin B, (pH=7.2). The A2A receptor agonist […], the antagonists ZM 241385 and SCH 58261, and the protein kinase A inhibitor H-89 were all dissolved in DMSO and kept as 10 mM stock solutions. The caffeine releasable SR calcium content was measured by transiently exposing cells to 10 mM caffeine. The time integral of the resulting Na—Ca exchange current was converted to pmoles […] of calcium released from the SR assuming a stoichiometry of 3Na^+:1Ca^2+ for the Na—Ca exchanger.
Electrophysiological and confocal calcium imaging experiments were carried out without knowledge about the clinical data of the patients. The Ca^2+ sparks and Ca^2+ waves recorded in cells from the same patient were averaged. Unless otherwise stated, average values from each patient were used for statistical analysis and expressed as mean±S.E.M. Data sets were tested for normality. Student's t-test was used to assess significant differences when testing a specific effect. ANOVA was used for comparison of multiple effects and Student-Newman-Keuls post test was used to evaluate the significance of specific effects.

| SMILES | basal calcium wave frequency measured by confocal microscopy [1] | basal calcium wave frequency measured by patch clamp technique ([2]; 50 nM) | reversal of the specific effect of CGS 21680 on spontaneous SR calcium release [2] | also measured |
| --- | --- | --- | --- | --- |
| CCNC(=O)[C@H]1O[C@@H](n2cnc3c(N)nc(NCCc4ccc(CCC(=O)O)cc4)nc32)[C@H](O)[C@@H]1O [CGS 21680] | – | – | – | number of calcium waves ([1]; myocytes from patients with atrial fibrillation, preincubation with 200 nM): increased the number of calcium waves; number of spontaneous calcium waves measured as the Na-Ca exchange current (INCX) ([2]; 200 nM, -80 mV, atrial fibrillation patients (FIG. 2A, B, D)): reversibly increased the number of spontaneous calcium waves |
| O=S(=O)(NCCNC/C=C/c1ccc(Br)cc1)c1cccc2cnccc12 [H-89] | – | – | – | effect on the stimulatory effect of 200 nM CGS 21680 (wave frequency) ([2]; 10 μM H-89, myocytes from 5 patients with atrial fibrillation (FIG. 2E), p=0.002 CGS vs. CGS+H-89): abolished the stimulatory effect; also recorded: eliminated; spontaneous calcium release / calcium wave frequency relative to baseline before CGS 21680 ([2]; 10 μM H-89 with 200 nM CGS 21680, p=0.05 vs. control (FIG. 2E)): reduced spontaneous calcium release to a significantly lower level than the baseline; also recorded: reduces the calcium wave frequency below baseline level |
| Nc1nc2c(cnn2CCc2ccccc2)c2nc(-c3ccco3)nn12 [SCH 58261] | significantly reduced the calcium wave frequency | significantly reduced the calcium wave frequency | reversed | spontaneous INCX frequency (basal) ([2]; 50 nM, samples of patients with atrial fibrillation, -80 mV (FIG. 3A)): reversible reduction |
| Nc1nc(NCCc2ccc(O)cc2)nc2nc(-c3ccco3)nn12 [ZM 241385] | significantly reduced the calcium wave frequency | significantly reduced the calcium wave frequency | reversed | reversal of the stimulatory effect of 200 nM CGS 21680 on spontaneous INCX ([2]; antagonist 1 μM, -80 mV (FIG. 2C)): able to revert the stimulatory effect |
